Test system: oral sensitization model of BALB/c mouse
Experiment: Oral sensitization model with OVA, oligosaccharide-added feeds, serum antigen-specific antibody titer (ELISA)
Type: in vivo
Conditions: 5% (w/w) in feed
Excerpt: An oral sensitization model of BALB/c mouse using ovalbumin (OVA) as a model antigen was produced, and influences exerted by various oligosaccharides added to feed on serum antibody titer were compared. Until initiation of the experiment, 12-week old male BALM/c mice were allowed to freely take AIN-93G as a base feed (α-corn starch, 529.5 g/kg; casein, 200 g/kg; sucrose, 100 g/kg; soy bean oil, 70 g/kg; cellulose, 50 g/kg; mineral mixing, 35 g/kg; vitamin mixing, 10 g/kg; L-cystine, 3 g/kg; choline bitartarate, 2.5 g/kg) . After pre-breeding for 1 week, an oligosaccahide no-[…] (base seed) group, and feeds obtained by substituting 5% (w/w) of the base feed with raffinose (RAF), α-GOS (hereinafter, referred to simply as GOS), fructooligosaccharide (FOS), xylooligosaccharide (XOS), that is, five groups were prepared, and mice were allowed to freely take these feeds for 8weeks. During this, an aqueous OVA solution (1 mg/0.2 mL) was orally administered forcibly everyday. After initiation of aministration of OVA, blood was collected from orbital venous plexus every one week, and centrifugally separated to obtain sera. Sear of one group (9/group) were pooled, and subjected to quantification of antigen-specific antibody titer by ELISA.

## OC[C@H]1O[C@H](OC[C@H]2O[C@H](O[C@]3(CO)O[C@H](CO)[C@@H](O)[C@@H]3O)[C@H](O)[C@@H](O)[C@@H]2O)[C@H](O)[C@@H](O)[C@H]1O [RAF, raffinose]
8 weeks daily oral OVA
  effect on increase of IgE (overall conclusion): effect of delaying increase
  effect on increase of IgG (overall conclusion): effect of delaying increase
At 2 to 5 weeks
  antigen-specific IgG in blood: changed lower than the oligosaccharide no-addition feed group
At 8 weeks
  antigen-specific IgE in blood: showed the same high value as that of the FOS group
Until 7 weeks
  antigen-specific IgE in blood: changed lower than the oligosaccharide no-addition feed group and the FOS feed group
